# Measurements as given in ChEMBL document CHEMBL3507680, “University of Dundee, Gates Library screen for HepG2 cell viability”.
# Test: Human HepG2 cell viability assay in 384 well format
# Assay type: toxicity, cell-based
# Set-up: dose 125 nL, time 70.5 hour; cytotoxicity at 70.5 h: concentration not given beside the values
# Settings: HepG2 cells, read-out: Inhibition
row,Compound,cytotoxicity at 70.5 h
1,NC(=O)CS(=O)(=O)Cc1csc(-c2ccccc2)n1,-4.61%
2,FC(F)(F)c1ccnc(N2C[C@H]3CCN(c4cccnc4)C[C@H]3C2)n1,-17.5%
3,CCCC1(CO)CCCN(C(=O)CN2CCN(CC)CC2)C1 (configuration not stated),-24.3%
4,COc1ccc2cc(C(=O)N3CCCC3Cn3cc(C)cn3)[nH]c2c1 (configuration not stated),2.37%
5,O[C@H]1[C@H](n2cc(-c3cncnc3)nn2)c2ccccc2C12CCNCC2,-5.02%
6,Cc1nc(N2CCCC2)nc2c1CCN(C(=O)N(C)C)CC2,-16.7%
7,Cc1cc(CN2CC[C@@H]3O[C@@H](c4nnc(C)o4)C[C@H]3C2)no1,-3.3%
8,COCCc1noc(C2CCCN(c3ncnc4c3CCC4)C2)n1 (configuration not stated),-13.9%
9,COCCNC(=O)[C@H]1CC[C@@H]2[C@@H](CCN2S(C)(=O)=O)O1,11.5%
10,O=C(Cn1nc2c(cc1=O)CCCC2)NC(C(=O)O)c1ccccc1 (configuration not stated),-12.2%
11,COc1ccccc1C(=O)N1CCOCC1c1c(C)n[nH]c1C (configuration not stated),-15.2%
12,O=C(NC1CC1)c1cnc(-c2noc3cc(N4CCCCC4)ccc23)s1,-0.737%
13,O=C(NCC1CC1)C1CN(c2ncccn2)Cc2ccnn2C1 (configuration not stated),-14.5%
14,COc1ccc(F)cc1C(=O)N1CC(c2ccncc2)C1,-10%
15,COc1ccc(CCNC(=O)Nc2cc(C)nn2C)cc1,-2.92%
16,Cc1cnn(CCCNC(=O)C2CCCCN2Cc2cccnc2)c1 (configuration not stated),0.0952%
17,CCOCCCn1c(NC(=O)c2cnn(C)c2)nc2ccccc21,-13.3%
18,O=c1[nH]c(CCN2CCN(CC(F)(F)F)CC2)nc2ccccc12,-4.17%
19,CC(C)NC(=O)c1cccc(Oc2ccc3nncn3n2)c1,23.3%
20,Fc1ccc(CN2CCC(c3n[nH]c4nccnc34)CC2)cc1F,7.75%
21,CC(C)C(=O)N1Cc2ccccc2CC2(CCCN2C)C1 (configuration not stated),-10.9%
22,O=C(c1cccc(Cl)c1)N1CC[C@H]2[C@H]1CCN2CC1CCOCC1,-8.99%
23,CCOc1ccc(Cl)cc1CCNC(=O)c1ccc(=O)n(C)c1,-10.2%

row,Compound,cytotoxicity at 70.5 h
1,COc1c(C(=O)NCC(C)C)nnn1Cc1ccccc1,-4.1%
2,O=C(N1CCOCC1)N1CCc2ncnc(Oc3cccnc3)c2CC1,-2.03%
3,Cn1ccc(CN2CCCC2c2ccc3c(c2)OCCCO3)cc1=O (configuration not stated),-12.3%
4,Cc1cc(NC(N)=O)ccc1C(=O)N(C)C,4.17%
5,O=C(NC[C@H]1C[C@@H]2CN(C(=O)c3ccno3)C[C@@H]2O1)C1CCC1,-11.5%
6,CC(NC(=O)CNCCn1cccn1)c1ccc2c(c1)CCCC2 (configuration not stated),-4.4%
7,CNS(=O)(=O)CC(=O)NC(C)Cc1cccc(Cl)c1 (configuration not stated),-2.05%
8,CCN1CCN(S(=O)(=O)c2ncn(C)c2Cl)CC1,-8.62%
9,CNC(=O)[C@@H]1C[C@@H](N)CN1c1nc(N2CCCC2)nc(C)c1C,-10.2%
10,COCCN(Cc1ccc(C)cc1)Cc1nccn1C,-0.21%
11,CCC1=N[C@@]2(CC[C@@H]3CN(C(=O)NCC(C)C)C[C@@H]32)C(=O)N1CCOC,-2.9%
12,Cc1csc(C(Cc2ccsc2)NC(=O)Cn2cccnc2=O)n1 (configuration not stated),14.5%
13,Cc1nonc1-c1nc(C(C)C)nn1-c1ccc2c(c1)OCO2,-3.15%
14,COc1ncnc(N)c1CNCCc1ccc(-n2cccn2)cc1,-1.5%
15,CCOCC(=O)NCCc1nc(C)cc(C(F)(F)F)n1,-10.8%
16,CCN1CCC2(CN(C(C)=O)CC23CCN(CC2CC2)CC3)C1=O (configuration not stated),-5.77%
17,CC(C)(C)CC(=O)N1C[C@@H]2C[C@H]1CN2,-8.19%
18,COc1ccccc1OCc1cc(C(=O)N2CCN[C@H](C)C2)n[nH]1,-5.99%
19,Cc1nc(N)nc(C)c1CC(=O)N1CCCN(CC2CC2)C(C(C)C)C1 (configuration not stated),-8.22%
20,O=C(c1ccon1)N1CCN(c2ccncc2Cl)CC1,-4.94%
21,CN(C)CC(=O)N1CCN(CC(O)c2ccc(F)cc2)CC1 (configuration not stated),-1.76%
22,CC(C)c1nnc(NC(=O)C2CSCN2C(=O)C2CCC2)s1 (configuration not stated),-8.18%
23,CCOc1cncc(N2CCN(c3ccccc3O)CC2)n1,13.6%

row,Compound,cytotoxicity at 70.5 h
1,NC(=O)Cn1ccnc1C1CCCN(Cc2ccccc2OC(F)F)C1 (configuration not stated),-6.45%
2,CC(C)c1cc(NC(=O)CN2CCCC2Cn2cncn2)on1 (configuration not stated),-9.97%
3,O=C(Cn1ccc2sccc2c1=O)NCc1ccc(F)cc1,-9.4%
4,O=C(c1cc(-c2ccc(O)cc2)n[nH]1)N1CCCC1c1cccnc1 (configuration not stated),0.428%
5,Cc1cc(C)n(CC2CCCN2C(=O)Cc2c(C)nc(C)[nH]c2=O)n1 (configuration not stated),-13.8%
6,NC(=O)COc1cccc(C(=O)N2CCCC(n3ccnc3)C2)c1 (configuration not stated),-14.8%
7,O=C(NC1CC1)N1CCc2ccc(=O)n(CC3CC3)c2CC1,-1.74%
8,COc1cc(F)ccc1N1CCN(Cc2nc(C)c(C)o2)CC1,-11.2%
9,CN1CCN(C(=O)NCCNc2ncccn2)Cc2ccccc21,-14%
10,CCS(=O)(=O)N1CCC2(CC1)CC[C@@]1(C(=O)N(C)C)CN(C(C)=O)C[C@@H]21,13.5%
11,O=C(Cc1cccc(F)c1)NCCNc1ncccn1,-4.32%
12,CCCNC(=O)CCNC(=O)Cc1nc(-c2ccco2)oc1C,-4.05%
13,NCC1(c2cccc(Br)c2)CCOCC1,-5.45%
14,CCc1c(C)nn(CCN2CC3(CCOC3)CCC2=O)c1C (configuration not stated),-6.21%
15,Cc1nn(C)c2nc(O)cc(C(F)(F)C(F)(F)F)c12,0.0459%
16,O[C@@H]1CN(CC2=Cc3cc(Cl)ccc3OC2)CC[C@H]1N1CCCCCC1,-11%
17,CNC(=O)[C@@H](c1ccccc1)N1CCC[C@H]1C(=O)NCc1cccnc1,-2.18%
18,C=C(C)CN(CC)S(=O)(=O)c1ccccc1C#N,-7.47%
19,CNC(=O)CCCNCc1c(C)nn(C)c1N(C)C,-1.74%
20,Cc1cc(OCC(O)c2nc3c([nH]2)CC(C)(C)CNC3=O)ccc1Cl (configuration not stated),-12.4%
21,O=C1N(Cc2ccc(Cl)cc2)CCC12CCCNC2 (configuration not stated),-12.9%
22,COc1ccc(CN(C)Cc2c(C)noc2C)c(Br)c1OC,-8.43%
23,CCNc1ncc(C(=O)N2CCC(c3ccccc3C(=O)O)C2)cn1 (configuration not stated),2.76%

row,Compound,cytotoxicity at 70.5 h
1,CCn1cnnc1CNC(=O)N1CCN(c2ccccc2O)CC1,-13.9%
2,Cc1cc(C)n(CC2CCCN2CC(=O)N(C)Cc2ccc(C)o2)n1 (configuration not stated),18%
3,CN1CCC(NCC(O)c2cccc(OCc3ccccc3)c2)CC1 (configuration not stated),4.18%
4,CS(=O)(=O)NC1CCN(C(=O)CCn2cccn2)CC1,-9.56%
5,O=C(CN1CCCCC1Cn1cncn1)NCCc1ccc(F)cc1 (configuration not stated),32.1%
6,Fc1cnc(N2CCCC3(COCCN(c4nccs4)C3)C2)nc1 (configuration not stated),-12.2%
7,CCn1cc(CNC(=O)CC(C)C)cn1,3.41%
8,Cn1ncc2c(N3CCN(CCO)CC3)nc(C3CCCC3)nc21,-14.2%
9,Cc1sc2ncnc(N3CCC(N(C)Cc4cnn(C)c4)CC3)c2c1C,0.374%
10,Cc1cc(C(=O)N2CCCN(Cc3cnn(C(C)C)c3)CC2)no1,-3%
11,CS(=O)(=O)N1CCC2(CC1)CN(CC1CCOC1)c1ccccc12 (configuration not stated),5.41%
12,Cc1cccc2nc(C(=O)N3CCC4(CCC(=O)N(C)C4)CC3)c(F)n12,-11.3%
13,CC(C)NS(=O)(=O)c1cc(C(=O)O)cc(-c2ccc3c(c2)OCCO3)c1,-8.82%
14,c1cncc(OCc2noc3c2CN(Cc2ccoc2)CC3)c1,-15.9%
15,CCc1ncc(C(=O)N2CCN(c3nc(C)cc(OC)n3)CC2)s1,15.8%
16,COc1ccccc1CN(C)c1nccc(-c2cn(C)nc2C)n1,-8.86%
17,COCc1cc(N(C)CCc2c(C)n[nH]c2C)ncn1,5.69%
18,CN(C)S(=O)(=O)N1C[C@@H]2CC[C@H](C1)N(CCC(=O)NCc1ccco1)C2,2.74%
19,Cc1nsc(N2CCCN(CC(=O)N(C)C3CC3)CC2)n1,-4.31%
20,Cc1cc(C2CCCN2Cc2nnc(-c3ccco3)o2)on1 (configuration not stated),-8.06%
21,Cc1nnc(NC(=O)CN2CCCC2c2c(C)nn(C)c2C)s1 (configuration not stated),7.87%
22,COCCN1CCC2(CC1)CC(NC(=O)COC)c1ccccc1O2 (configuration not stated),-7.59%
23,CCCn1c(C)c(CC(=O)NCCC(N)=O)c2c1CC(C)(C)CC2=O,11.1%

row,Compound,cytotoxicity at 70.5 h
1,Cc1nc(CCNC(Cc2ccncc2)C(F)(F)F)cs1 (configuration not stated),-3.19%
2,CC(C)(C)n1ccc(C(=O)N2CCCC(c3ccc(C(=O)O)cc3)C2)c1 (configuration not stated),-13.3%
3,O=c1n(CCSCc2ccccc2Br)nc2ccccn12,4.82%
4,CN(C)C(=O)N1C[C@@H]2CC[C@H](C1)N(Cc1ccc3nsnc3c1)C2,-5.73%
5,Cc1ccnc(NC(=O)CSCc2cccnc2)c1,-2.67%
6,O=S(=O)(CCNCc1cc(O)c2cc(F)ccc2n1)N1CCCC1,17.6%
7,Cn1cc(CC2CCN(C(=O)NCc3cccc(C(N)=O)c3)C2)cn1 (configuration not stated),-13.1%
8,CN(C)Cc1cnc2n1CCN(C(=O)Cc1cccc(F)c1)CC2,4.88%
9,CC(C)=CCN1CCC2(CC1)c1ccccc1[C@@H](N1CCSCC1)[C@@H]2O,-4.97%
10,COc1ccc(S(=O)(=O)Cc2cc(C)on2)cc1,-4.34%
11,O=C(NCC1CCOCC1)[C@H]1C[C@@H]2CCN(Cc3ccccc3)C[C@H]2O1,-7.17%
12,COCCN(C)Cc1cn(C)nc1-c1ccc2c(c1)OCCO2,-7.93%
13,CC(C)c1nn(CC(=O)N2CCCCC2)c(=O)c2c1cnn2C(C)(C)C,-10.1%
14,CC1CN(S(=O)(=O)c2ccc(C(=O)NCC(F)F)cc2)CCCO1 (configuration not stated),-0.0719%
15,Cc1cc(C(=O)NC(C)c2nnn[nH]2)c2cccc(C)c2n1 (configuration not stated),-0.0967%
16,CC(C)(C)C(NC(=O)CCCS(C)(=O)=O)c1ccc(F)cc1F (configuration not stated),-0.26%
17,CC(C)c1nnc2n1CCN(CC(=O)N1CCc3sccc3C1)C2,-6.79%
18,Cc1cc(=O)n2ncnc2n1CC(O)c1ccccc1F (configuration not stated),-10.7%
19,Cc1cnn(CC2CCCCN2C(=O)c2ccc(N(C)C)nc2)c1 (configuration not stated),0.883%
20,COc1ccnc(N2CCC3(CCCN(C(C)C)C3=O)C2)n1 (configuration not stated),-1.71%
